Results published in ChEMBL document CHEMBL3045812, “Synthesis of fatty acid Schiff base esters as potential antimicrobial and chemotherapeutic agents” (Med Chem Res, 2013).
The source made the active and inactive calls.

Tests used:
Raoultella planticola = assay: Antibacterial activity against Raoultella planticola MTCC 530 at 1.4 to 300 ug/ml after 24 hr by microtiter broth dilution method; assay type: functional, organism-based
A549 = assay: Cytotoxicity against Homo sapiens (human) A549 cells by tetrazolium-reduction assay; assay type: functional, cell-based
Candida albicans [1] = assay: Antifungal activity against Candida albicans MTCC 227 at 1.4 to 300 ug/ml after 24 hr by microtiter broth dilution method; assay type: functional, organism-based
Candida albicans [2] = assay: Antifungal activity against Candida albicans MTCC 3018 at 1.4 to 300 ug/ml after 24 hr by microtiter broth dilution method; assay type: functional, organism-based
Candida parapsilosis [3] = assay: Antifungal activity against Candida parapsilosis MTCC 1744 at 1.4 to 300 ug/ml after 24 hr by microtiter broth dilution method; assay type: functional, organism-based
Candida albicans [4] = assay: Antifungal activity against Candida albicans MTCC 1637 at 1.4 to 300 ug/ml after 24 hr by microtiter broth dilution method; assay type: functional, organism-based
Staphylococcus aureus [5] = assay: Antibacterial activity against Staphylococcus aureus MTCC 96 after 24 hr by microtiter broth dilution method; assay type: functional; details: MTCC 96, 24 h
MDA-MB-231 = assay: Cytotoxicity against Homo sapiens (human) MDA-MB-231 cells by tetrazolium-reduction assay; assay type: functional, cell-based
Candida albicans [6] = assay: Antifungal activity against Candida albicans MTCC 854 at 1.4 to 300 ug/ml after 24 hr by microtiter broth dilution method; assay type: functional, organism-based
Nakaseomyces glabratus [7] = assay: Antifungal activity against Candida glabrata MTCC 3019 at 1.4 to 300 ug/ml after 24 hr by microtiter broth dilution method; assay type: functional, organism-based
N2a = assay: Cytotoxicity against Mus musculus (mouse) Neuro2a cells by tetrazolium-reduction assay; assay type: functional, cell-based
Candida albicans [8] = assay: Antifungal activity against Candida albicans MTCC 7315 at 1.4 to 300 ug/ml after 24 hr by microtiter broth dilution method; assay type: functional, organism-based
Bacillus subtilis = assay: Antibacterial activity against Bacillus subtilis MTCC 121 after 24 hr by microtiter broth dilution method; assay type: functional
Candida albicans [9] = assay: Antifungal activity against Candida albicans MTCC 183 at 1.4 to 300 ug/ml after 24 hr by microtiter broth dilution method; assay type: functional, organism-based
Escherichia coli = assay: Antibacterial activity against Escherichia coli MTCC 739 at 1.4 to 300 ug/ml after 24 hr by microtiter broth dilution method; assay type: functional, organism-based
Candida albicans [10] = assay: Antifungal activity against Candida albicans MTCC 3017 at 1.4 to 300 ug/ml after 24 hr by microtiter broth dilution method; assay type: functional, organism-based
Micrococcus luteus = assay: Antibacterial activity against Micrococcus luteus MTCC 2470 at 1.4 to 300 ug/ml after 24 hr by microtiter broth dilution method; assay type: functional, organism-based
Pseudomonas aeruginosa = assay: Antibacterial activity against Pseudomonas aeruginosa MTCC 2453 after 24 hr by microtiter broth dilution method; assay type: functional; details: MTCC 2453, 24 h
Staphylococcus aureus [11] = assay: Antibacterial activity against Staphylococcus aureus MLS16 MTCC 2940 after 24 hr by microtiter broth dilution method; assay type: functional; details: MLS16 MTCC 2940, 24 h
MCF7 = assay: Cytotoxicity against Homo sapiens (human) MCF7 cells by tetrazolium-reduction assay; assay type: functional, cell-based; details: mcf7
[Candida] aaseri [12] = Antifungal activity against Candida aaseri MTCC 1962 at 1.4 to 300 ug/ml after 24 hr by microtiter broth dilution method; assay type: functional, organism-based
Candida albicans [13] = assay: Antifungal activity against Candida albicans MTCC 3958 at 1.4 to 300 ug/ml after 24 hr by microtiter broth dilution method; assay type: functional, organism-based
HepG2 = assay: Cytotoxicity against Homo sapiens (human) HepG2 cells by tetrazolium-reduction assay; assay type: functional, cell-based
HeLa = assay: Cytotoxicity against Homo sapiens (human) HeLa cells by tetrazolium-reduction assay; assay type: functional, cell-based
Candida albicans [14] = assay: Antifungal activity against Candida albicans MTCC 183 after 24 hr by microtiter broth dilution method; assay type: functional; details: MTCC 183, 24 h
Candida albicans [15] = assay: Antifungal activity against Candida albicans MTCC 854 after 24 hr by microtiter broth dilution method; assay type: functional; details: MTCC 854, 24 h
Pichia kudriavzevii = assay: Antifungal activity against Pichia kudriavzevii MTCC 3020 after 24 hr by microtiter broth dilution method; assay type: functional; details: MTCC 3020, 24 h
[Candida] aaseri [16] = Antifungal activity against Candida aaseri MTCC 1962 after 24 hr by microtiter broth dilution method; assay type: functional; details: Yamadazyma aaseri, MTCC 1962, 24 h
Candida albicans [17] = assay: Antifungal activity against Candida albicans MTCC 1637 after 24 hr by microtiter broth dilution method; assay type: functional; details: MTCC 1637, 24 h
Candida albicans [18] = assay: Antifungal activity against Candida albicans MTCC 3017 after 24 hr by microtiter broth dilution method; assay type: functional
Candida albicans [19] = assay: Antifungal activity against Candida albicans MTCC 227 after 24 hr by microtiter broth dilution method; assay type: functional; details: MTCC 227, 24 h
Candida albicans [20] = assay: Antifungal activity against Candida albicans MTCC 7315 after 24 hr by microtiter broth dilution method; assay type: functional; details: MTCC 7315, 24 h
Candida albicans [21] = assay: Antifungal activity against Candida albicans MTCC 3018 after 24 hr by microtiter broth dilution method; assay type: functional; details: MTCC 3018, 24 h
Nakaseomyces glabratus [22] = assay: Antifungal activity against Candida glabrata MTCC 3019 after 24 hr by microtiter broth dilution method; assay type: functional
Candida albicans [23] = assay: Antifungal activity against Candida albicans MTCC 3958 after 24 hr by microtiter broth dilution method; assay type: functional; details: MTCC 3958, 24 h
Candida parapsilosis [24] = assay: Antifungal activity against Candida parapsilosis MTCC 1744 after 24 hr by microtiter broth dilution method; assay type: functional; details: Lodderomyces parapsilosis, MTCC 1744, 24 h
Pichia sporocuriosa = assay: Antifungal activity against Issatchenkia hanoiensis MTCC 4755 after 24 hr by microtiter broth dilution method; assay type: functional; details: MTCC 4755, 24 h

CCCCCCCCCCCCCCCCCC(=O)Oc1ccc(/C=N/Cc2cccnc2)cc1
inactive: Activity (Raoultella planticola) | Activity (A549) | Activity (Candida albicans [1]) | Activity (Candida albicans [2]) | Activity (Candida parapsilosis [3]) | Activity (Candida albicans [4]) | Activity (Candida albicans [6]) | Activity (Nakaseomyces glabratus [7]) | Activity (N2a) | Activity (Candida albicans [8]) | MIC (Bacillus subtilis) | Activity (Candida albicans [9]) | Activity (Escherichia coli) | Activity (Candida albicans [10]) | Activity (Micrococcus luteus) | Activity ([Candida] aaseri [12]) | Activity (Candida albicans [13]) | Activity (HepG2) | Activity (HeLa)
11.5 µM: IC50 (MDA-MB-231)
Not Active: IC50 (MCF7)
300 µg/mL: MIC (Staphylococcus aureus [5]) | MIC (Pseudomonas aeruginosa) | MIC (Staphylococcus aureus [11])

CCCCCCC(=O)Oc1ccc(/C=N/Cc2cccnc2)cc1
15 µM: IC50 (MDA-MB-231)
inactive: Activity (Raoultella planticola) | Activity (A549) | MIC (Candida albicans [18]) | Activity (N2a) | MIC (Nakaseomyces glabratus [22]) | Activity (Escherichia coli) | Activity (Micrococcus luteus) | Activity (HepG2) | Activity (HeLa)
Not Active: IC50 (MCF7)
300 µg/mL: MIC (Candida albicans [14]) | MIC (Candida albicans [15]) | MIC (Bacillus subtilis; MTCC 121, 24 h) | MIC (Candida parapsilosis [24])
150 µg/mL: MIC (Candida albicans [17]) | MIC (Candida albicans [20]) | MIC (Candida albicans [23]) | MIC (Staphylococcus aureus [11])
37.5 µg/mL: MIC (Staphylococcus aureus [5]) | MIC (Pseudomonas aeruginosa)
75 µg/mL: MIC (Pichia kudriavzevii) | MIC ([Candida] aaseri [16]) | MIC (Candida albicans [19]) | MIC (Candida albicans [21]) | MIC (Pichia sporocuriosa)

NC[C@@H]1O[C@H](O[C@H]2[C@@H](O)[C@H](O[C@@H]3[C@@H](O)[C@H](N)C[C@H](N)[C@H]3O[C@H]3O[C@H](CN)[C@@H](O)[C@H](O)[C@H]3N)O[C@@H]2CO)[C@H](N)[C@@H](O)[C@@H]1O [FRAMYCETIN]
18.8 µg/mL: MIC (Staphylococcus aureus [5]) | MIC (Bacillus subtilis; MTCC 121, 24 h) | MIC (Pseudomonas aeruginosa) | MIC (Staphylococcus aureus [11])

OC(Cn1cncn1)(Cn1cncn1)c1ccc(F)cc1F [FLUCONAZOLE]
64 µg/mL: MIC ([Candida] aaseri [16]) | MIC (Candida albicans [17]) | MIC (Candida albicans [18]; MTCC 3017, 24 h) | MIC (Nakaseomyces glabratus [22]; MTCC 3019, 24 h) | MIC (Candida albicans [23]) | MIC (Pichia sporocuriosa)
32 µg/mL: MIC (Candida albicans [14]) | MIC (Candida albicans [15]) | MIC (Candida albicans [19]) | MIC (Candida albicans [20]) | MIC (Candida albicans [21])
16 µg/mL: MIC (Candida parapsilosis [24])
128 µg/mL: MIC (Pichia kudriavzevii)

CCCCCCCCCC(=O)Oc1ccc(/C=N/Cc2cccnc2)cc1
300 µg/mL: MIC (Candida albicans [14]) | MIC (Candida albicans [15]) | MIC (Candida albicans [17]) | MIC (Candida albicans [19]) | MIC (Candida albicans [20]) | MIC (Candida albicans [23]) | MIC (Staphylococcus aureus [11])
75 µg/mL: MIC ([Candida] aaseri [16]) | MIC (Candida albicans [21]) | MIC (Pichia sporocuriosa) | MIC (Pseudomonas aeruginosa)
37.5 µg/mL: MIC (Staphylococcus aureus [5])
150 µg/mL: MIC (Pichia kudriavzevii) | MIC (Nakaseomyces glabratus [22]; MTCC 3019, 24 h) | MIC (Candida parapsilosis [24])
inactive: Activity (Raoultella planticola) | Activity (A549) | MIC (Candida albicans [18]) | Activity (N2a) | MIC (Bacillus subtilis) | Activity (Escherichia coli) | Activity (Micrococcus luteus) | Activity (HepG2) | Activity (HeLa)

COc1cccc2c1C(=O)c1c(O)c3c(c(O)c1C2=O)C[C@@](O)(C(=O)CO)C[C@@H]3O[C@H]1C[C@H](N)[C@H](O)[C@H](C)O1 [DOXORUBICIN]
< 1 µM: IC50 (MDA-MB-231)
